Assay results published in patent US8703811B2, “Small molecule inhibitors of Plasmodium falciparum dihydroorotate dehydrogenase” (Genzyme Corporation, priority 2008, dated 2014).
Like-named read-outs stand apart in the source and are kept apart here.

Legend:
pfDHODH = pfDHODH (Plasmodium falciparum (isolate 3D7), UniProt Q08210); assay: DHODH chromogen reduction (DCIP) assay, pfDHODH; format: biochemical, P. falciparum
Text: Type 2 DHODH activity was monitored with either the direct assay measuring the formation of orotate or via a chromogen reduction assay using DCIP. Although the extinction coefficient and absorption wavelength are preferable for the chromogen reduction assay, the inorganic electron acceptor DCIP can be utilized by DHODH as the final electron acceptor in lieu of CoQn when the endogenous substrate is at a low concentration. As such, the direct assay was used to measure the binding affinity of pfDHODH to CoQD and L-DHO. The enzymatic reaction was performed by varying the L-DHO concentration (1-400 μM) or CoQD concentration (1-200 μM) while keeping the other substrate constant and in excess.
Substrate specificity and enzyme inhibition data was analyzed with GraphPad Prism Version 4 for Windows (GraphPad Software). Kinetic constants were calculated by non-linear regression fitting of the data to the Michaelis-Menten equation [36]. IC50 values were determined by non-linear regression fitting of the data to Equation 1: […]

P. falciparum 3D7 = assay: Inhibition of in vitro P. falciparum culture, [3H]-hypoxanthine uptake, 3D7; format: cell-based; conditions: read-out: 3D7 EC50
Experimental: (§1) P. falciparum strains D10, 3D7, HB3, and Dd2 were obtained from the Malaria Research and Reference Reagent Resource Center (Manassas, Va.). The parasite strains were maintained in vitro by method of Trager and Jensen. The inhibition of P. falciparum growth in the presence of drug was assessed by the relative reduction of [^3H]-hypoxanthine uptake as previously described. Inhibition data were fitted to Equation 1 using non-linear regression analysis except that the relative velocity of parasite growth was substituted for the rate of product formation.

P. falciparum Dd2 = assay: Inhibition of in vitro P. falciparum culture, [3H]-hypoxanthine uptake, Dd2; format: cell-based; conditions: read-out: Dd2 EC50
Experimental: as §1

[1] = Table 2b, read-out: pfDHODH IC50
[2] = Plasmodium falciparum, 3D7, Table 2b
[3] = Plasmodium falciparum, DD2, Table 2b

Sequence of pfDHODH (Q08210 159-565 limits assumed): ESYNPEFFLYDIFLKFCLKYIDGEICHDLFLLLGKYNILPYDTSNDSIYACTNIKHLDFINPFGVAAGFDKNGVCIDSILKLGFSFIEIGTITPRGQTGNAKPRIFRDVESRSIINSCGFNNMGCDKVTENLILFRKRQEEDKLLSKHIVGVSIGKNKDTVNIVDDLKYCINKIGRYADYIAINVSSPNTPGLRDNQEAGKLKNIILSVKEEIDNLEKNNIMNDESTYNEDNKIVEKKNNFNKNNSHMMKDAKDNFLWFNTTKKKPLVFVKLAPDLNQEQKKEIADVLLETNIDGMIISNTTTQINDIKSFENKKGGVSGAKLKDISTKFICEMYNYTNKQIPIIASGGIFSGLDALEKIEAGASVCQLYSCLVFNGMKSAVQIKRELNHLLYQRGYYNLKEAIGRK

SMILES | IC50 (pfDHODH; [1]) | EC50 (P. falciparum 3D7; [2]) | EC50 (P. falciparum Dd2; [3]) | IC50 (pfDHODH; pfDHODH IC50, Table 2b) | EC50 (P. falciparum 3D7; Table 2b) | EC50 (P. falciparum Dd2; Table 2b)
CCCNC(=O)c1ccc(N2CCOCC2)s1 [Compound 13, 5-morpholino-N-propylthiophene-2-carboxamide] | > 250 µM | > 10 µM | > 10 µM | – | – | –
CCCNC(=O)c1ccc(N2CCCC2)s1 [Compound 14, N-propyl-5-(pyrrolidin-1-yl)thiophene-2-carboxamide] | > 250 µM | > 10 µM | > 10 µM | – | – | –
CCCNC(=O)c1ccc(-n2ccnc2)s1 [Compound 15, 5-(1H-imidazol-1-yl)-N-propylthiophene-2-carboxamide] | 165 µM | > 10 µM | > 10 µM | – | – | –
CCCNC(=O)c1ccc(-n2cnc3cncnc32)s1 [Compound 16, N-propyl-5-(9H-purin-9-yl)thiophene-2-carboxamide] | – | > 10 µM | > 10 µM | – | – | –
CCCNC(=O)c1ccc(N2CC(C)Sc3ccccc32)s1 (centres unmarked) [Compound 17, 5-(2-methyl-2H-benzo[b][1,4]thiazin-4(3H)-yl)-N-propylthiophene-2-carboxamide] | 19.1 µM | > 10 µM | > 10 µM | – | – | –
CCCNC(=O)c1ccc(N2CCSc3ccccc32)s1 [Compound 18, 5-(2H-benzo[b][1,4]thiazin-4(3H)-yl)-N-propylthiophene-2-carboxamide] | 9.2 µM | > 10 µM | > 10 µM | – | – | –
CCCNC(=O)c1ccc(N2CCOc3ccc(Cl)cc32)s1 [Compound 19, 5-(6-chloro-2H-benzo[b][1,4]oxazin-4(3H)-yl)-N-propylthiophene-2-carboxamide] | 7.5 µM | > 10 µM | > 10 µM | – | – | –
CCCNC(=O)c1ccc(N2CCc3ccccc32)s1 [Compound 20, 5-(indolin-1-yl)-N-propylthiophene-2-carboxamide] | > 30 µM | > 10 µM | > 10 µM | – | – | –
CCCNC(=O)c1ccc(N2CCSc3ncccc32)s1 [Compound 21, 5-(2,3-dihydro-1H-pyrido[2,3-b][1,4]thiazin-1-yl)-N-propylthiophene-2-carboxamide] | 13.8 µM | > 10 µM | > 10 µM | – | – | –
CCCNC(=O)c1ccc(N2Cc3cccc(OC)c3Oc3ncccc32)s1 [Compound 22, 5-(10-methoxybenzo[f]pyrido[2,3-b][1,4]oxazepin-5(6H)-yl)-N-propylthiophene-2-carboxamide] | > 30 µM | > 10 µM | > 10 µM | – | – | –
O=C(c1ccc(-n2cnc3ccccc32)s1)N1CCCC1 [Compound 26] | > 30 µM | 10 µM | 20 µM | – | – | –
CN(C)C(=O)c1ccc(-n2cnc3ccccc32)s1 [Compound 27] | > 30 µM | > 40 µM | > 40 µM | – | – | –
NC(=O)c1ccc(-n2cnc3ccccc32)s1 [Compound 28] | > 30 µM | > 40 µM | 20 µM | – | – | –
CCCCNC(=O)c1ccc(-n2cnc3ccccc32)s1 [Compound 29] | 28.6 µM | 20 µM | 7.3 µM | – | – | –
O=C(c1ccc(-n2cnc3ccccc32)s1)N1CCCCC1 [Compound 34] | > 30 µM | > 20 µM | > 20 µM | – | – | –
CC[C@H](C)NC(=O)c1ccc(-n2cnc3ccccc32)s1 [Compound 37] | 17.9 µM | > 20 µM | > 20 µM | – | – | –
Cc1nc2cc(Cl)ccc2n1-c1ccc(C(=O)NC2CC2)s1 [Compound 41] | – | – | – | 0.04 µM | 0.067 µM | 0.083 µM
O=C(NC1CC1)c1ccc(-n2c(O)nc3ccccc32)s1 [Compound 45] | > 30 µM | 5 µM | 5 µM | – | – | –
O=C(c1ccc(-n2cnc3ccccc32)s1)N1CCC1 [Compound 46] | 16.5 µM | 5 µM | 5 µM | – | – | –
CC[C@@H](C)NC(=O)c1ccc(-n2cnc3ccccc32)s1 [Compound 47] | > 30 µM | > 5 µM | > 5 µM | – | – | –
CCCN(C)C(=O)c1ccc(-n2cnc3ccccc32)s1 [Compound 48] | > 30 µM | > 5 µM | > 5 µM | – | – | –
Cc1nc2cnccc2n1-c1ccc(C(=O)NC2CC2)s1 [Compound 71] | 3.08 µM | 3.7 µM | 6.3 µM | – | – | –
Cc1nc2cccnc2n1-c1ccc(C(=O)NC2CC2)s1 [Compound 72] | 1.12 µM | 0.364 µM | 0.52 µM | – | – | –

SMILES | IC50 (pfDHODH; [1]) | EC50 (P. falciparum 3D7; [2]) | EC50 (P. falciparum Dd2; [3]) | IC50 (pfDHODH; pfDHODH IC50, Table 2b) | EC50 (P. falciparum 3D7; Table 2b) | EC50 (P. falciparum Dd2; Table 2b)
Cc1nc2ncccc2n1-c1ccc(C(=O)NC2CC2)s1 [Compound 73] | 4.77 µM | 1.3 µM | 2.4 µM | – | – | –
Cc1nc2ccccc2n1-c1cscc1C(=O)NC1CC1 [Compound 77, N-cyclopropyl-4-(2-methyl-1H-benzo[d]imidazol-1-yl)thiophene-3-carboxamide] | > 30 µM | > 5 µM | > 5 µM | – | – | –
Cc1nc2ccccc2n1-c1cc(C(=O)NC2CC2)cs1 [Compound 78, N-cyclopropyl-5-(2-methyl-1H-benzo[d]imidazol-1-yl)thiophene-3-carboxamide] | 1.7 µM | 1.02 µM | 2.05 µM | – | – | –
Cn1c(-c2ccc(C(=O)NC3CC3)s2)nc2ccccc21 [Compound 79] | > 30 µM | > 5 µM | > 5 µM | – | – | –
O=C(NC1CC1)c1ccc(-c2nc3ccccc3o2)s1 [Compound 80] | > 30 µM | 2.58 µM | 1.71 µM | – | – | –
c1ccc2[nH]c(-c3ccc(-c4nc5ccccc5[nH]4)s3)nc2c1 [Compound 81] | > 30 µM | 5 µM | > 5 µM | – | – | –
Cn1c(-c2ccc(-c3nc4ccccc4n3C)s2)nc2ccccc21 [Compound 82] | > 30 µM | > 5 µM | > 5 µM | – | – | –
c1ccc2oc(-c3ccc(-c4nc5ccccc5o4)s3)nc2c1 [Compound 83] | > 30 µM | > 5 µM | > 5 µM | – | – | –
CCCCC(O)c1ccc(-n2cnc3ccccc32)s1 (centres unmarked) [Compound 85, 1-[5-(1H-benzimidazol-1-yl)-2-thienyl]pentan-1-ol] | > 30 µM | 20 µM | 5.9 µM | – | – | –
CCCC/C(=N\O)c1ccc(-n2cnc3ccccc32)s1 [Compound 86, 1-[5-(1H-benzimidazol-1-yl)-2-thienyl]pentan-1-one oxime] | > 30 µM | 10 µM | 20 µM | – | – | –
CCCC/C(=N/O)c1ccc(-n2cnc3ccccc32)s1 [Compound 87, 1-[5-(1H-benzimidazol-1-yl)-2-thienyl]pentan-1-one oxime] | > 30 µM | 40 µM | 10 µM | – | – | –
CCCC/C(=N/OC)c1ccc(-n2cnc3ccccc32)s1 [Compound 88, 1-[5-(1H-benzimidazol-1-yl)-2-thienyl]pentan-1-one O-methyloxime] | > 30 µM | 5.4 µM | 2.6 µM | – | – | –
CCCC/C(=N\OC)c1ccc(-n2cnc3ccccc32)s1 [Compound 89, 1-[5-(1H-benzimidazol-1-yl)-2-thienyl]pentan-1-one O-methyloxime] | > 30 µM | 5.3 µM | 4.4 µM | – | – | –
CCNC(=O)c1ccc(-n2c(C)nc3cc(F)ccc32)cc1 [Compound 91] | 2.87 µM | > 0.5 µM | > 0.5 µM | – | – | –
CCNC(=O)c1cccc(-n2c(C)nc3cc(F)ccc32)c1 [Compound 92] | > 30 µM | > 1 µM | > 1 µM | – | – | –
Cc1nc2cc3ccccc3cc2n1-c1ccc(C(=O)NC2CC2)s1 [Compound 93] | 0.035 µM | 0.017 µM | 0.019 µM | – | – | –
Cc1nc2cc(OC(C)C)ccc2n1-c1ccc(C(=O)NC2CC2)s1 [Compound 94] | 0.121 µM | 0.051 µM | 0.061 µM | – | – | –
Cc1nc2cc(F)c(F)cc2n1-c1ccc(C(=O)NC2CC2)s1 [Compound 95] | 0.105 µM | – | – | – | – | –
Cc1nc(-c2ccc(Cl)cc2)cn1-c1ccc(C(=O)NC2CC2)s1 [Compound 96] | 0.252 µM | – | – | – | – | –
Cc1nc2cc(-c3ccccc3)ccc2n1-c1ccc(C(=O)NC2CC2)s1 [Compound 97] | 0.178 µM | – | – | – | – | –
Cc1nc2ccc(-c3ccccc3)cc2n1-c1ccc(C(=O)NC2CC2)s1 [Compound 98] | 0.089 µM | – | – | – | – | –
O=C(NC1CC1)c1ccc(-n2nnc3ccccc32)s1 [Compound 99, 5-(1H-benzo[d][1,2,3]triazol-1-yl)-N-cyclopropylthiophene-2-carboxamide] | 28 µM | – | – | – | – | –
O=C(NC1CC1)c1ccc(-n2ncc3ccccc32)s1 [Compound 100, N-cyclopropyl-5-(1H-indazol-1-yl)thiophene-2-carboxamide] | > 30 µM | – | – | – | – | –
